Source: patent publication US8633019B2, “Methods for treating spinal muscular atrophy” (PTC Therapeutics, Inc., priority 2008, dated 2014)

System: inclusion of exon 7 of SMN2 into mRNA transcribed from the SMN2-A minigene
Assay: Fold Activation: luciferase reporter, SMN2-A minigene construct versus SMN2-G minigene construct, in stably transfected HEK293H cells
Format: cell-based, human
Settings: ratio of First Activation using the SMN2-A construct divided by Second Activation using the SMN2-G construct
Source text: In a specific embodiment, the first cell and the second cell are the same cell type. In some embodiments, the first cell and the second cell are the same cell type and are obtained from the same source or clone. In some embodiments, the first reporter gene and the second reporter gene are the same reporter gene. In other embodiments, the first reporter gene and second reporter gene are different reporter genes. A compound that increases the inclusion of exon 7 of SMN2 into mRNA transcribed from the SMN2 gene will result in a Fold Activation derived from a higher ratio of the First Activation:
[formula] [formula] [formula] In some embodiments, both the amount and activity of the first and second fusion proteins are detected. Accordingly, as used herein, the Fold Activation for a compound that modulates the inclusion of exon 7 of SMN2 into mRNA transcribed from the SMN2 gene is a ratio of the First Activation divided by the Second Activation.
The HEK293H cell line stably transfected with the SMN2-A minigene construct was utilized in the HTS. HTS was performed by plating 10,000 cells in each well of a 384-well plate. Each 384-well plate contained 64 control wells used as an internal standard: 16 wells were used as a total control (no test compound, only compound solvent), 16 wells were used as reference standards representing background readings (high inhibitor concentration) and 32 wells were prepared to provide an 8-point dose response curve of puromycin as a non-specific standard control inhibitor. The remaining 320 wells contained individual test compounds. The cells were grown overnight in the presence of test compounds or controls at 37° C. in 5% CO2. After 24 hours, the amount of luminescence was determined using a ViewLux Imaging system (Perkin Elmer).
Using the SMN2-A minigene construct, a HTS was performed testing a compound library. The amount of the fusion protein expressed from the minigene construct was determined by measuring luciferase activity as described herein. […] Enhancers of fusion protein expression were defined as those compounds that increased luciferase activity by at least three standard deviations above the mean. Based on this analysis, test compounds of Formula (I) were identified as hits and were subsequently confirmed by testing the compounds under the same conditions as in the original HTS. To ensure that the increase in luciferase activity detected in the HTS was due to increased inclusion of exon 7 of SMN2 into mRNA transcripts from the SMN2-A minigene construct, each compound was tested in two different cell lines: the cell line, which was used in the original HTS (HEK293H containing the SMN2-A minigene construct), and a HEK293H cell line that contained the SMN2-G minigene construct.
Each compound was tested at four concentrations: 15 μM, 3 μM, 0.6 μM, 0.12 μM.
The Fold Activation results are provided as a ratio of a First Activation using the SMN-2A construct divided by a Second Activation using the SMN-2G construct, wherein 1 star (*) represents active compounds with a fold increase ratio between 1.1-1.3; 2 stars (**) represent active compounds with a fold increase ratio between 1.3-2.0; 3 stars (***) represent active compounds with a fold increase ratio greater than 2.0.

Row | Structure (SMILES) | Activity (Fold Activation)
1 | O=C(O)c1ccc2oc(-c3ccc(NCCCCl)cc3)nc2c1 [Cpd 54, 2-[4-(3-chloro-propylamino)-phenyl]-benzooxazole-5-carboxylic acid] | ** (2 stars (**) represent active compounds with a fold increase ratio between 1.3-2.0)
2 | O=C(O)c1cccc(-c2nc3ccc(Cn4ccnc4)cc3o2)c1 [Cpd 8, 3-(6-imidazol-1-ylmethyl-benzooxazol-2-yl)-benzoic acid] | ** (2 stars (**) represent active compounds with a fold increase ratio between 1.3-2.0)
3 | O=C(O)c1ccc2nc(-c3ccco3)oc2c1 [Cpd 65, 2-furan-2-yl-benzooxazole-6-carboxylic acid] | ** (2 stars (**) represent active compounds with a fold increase ratio between 1.3-2.0)
4 | O=C(O)c1cccc(-c2nc3ccc(-c4ccccc4)cc3o2)c1 [Cpd 23, 3-(6-Phenyl-benzooxazol-2-yl)-benzoic acid] | * (1 star (*) represents active compounds with a fold increase ratio between 1.1-1.3)
5 | O=C(O)c1ccc2oc(-c3ccc(OC(F)(F)F)cc3)nc2c1 [Cpd 100, 2-(4-trifluoromethoxy-phenyl)-benzooxazole-5-carboxylic acid] | ** (2 stars (**) represent active compounds with a fold increase ratio between 1.3-2.0)
6 | O=C(O)c1ccc2oc(-c3ccc(N4CCCC4)nc3)nc2c1 [Cpd 89, 2-(6-pyrrolidin-1-yl-pyridin-3-yl)-benzooxazole-5-carboxylic acid] | *** (3 stars (***) represent active compounds with a fold increase ratio greater than 2.0)
7 | O=C(O)c1ccc2oc(-c3ccc4c(c3)OCO4)nc2c1 [Cpd 26, 2-benzo[1,3]dioxol-5-yl-benzooxazole-5-carboxylic acid] | ** (2 stars (**) represent active compounds with a fold increase ratio between 1.3-2.0)
8 | O=C(O)c1ccc2nc(-c3cccnc3)oc2c1 [Cpd 69, 2-pyridin-3-yl-benzooxazole-6-carboxylic acid] | * (1 star (*) represents active compounds with a fold increase ratio between 1.1-1.3)
9 | O=C(O)c1ccc2oc(-c3ccc(N4CCCCC4)nc3)nc2c1 [Cpd 91, 2-(3,4,5,6-tetrahydro-2H-[1,2′]bipyridinyl-5′-yl)-benzooxazole-5-carboxylic acid] | ** (2 stars (**) represent active compounds with a fold increase ratio between 1.3-2.0)
10 | O=C(O)c1cccc(-c2nc3ccc(N4CCC4)cc3o2)c1 [Cpd 52, 3-(6-azetidin-1-yl-benzooxazol-2-yl)-benzoic acid] | ** (2 stars (**) represent active compounds with a fold increase ratio between 1.3-2.0)
11 | Cc1ccc2nc(-c3cccc(C(N)=O)c3)oc2c1 [Cpd 112, 3-(6-methyl-benzooxazol-2-yl)-benzamide] | ** (2 stars (**) represent active compounds with a fold increase ratio between 1.3-2.0)
12 | CC(C)(C)c1ccc2oc(-c3cccc(C(=O)O)c3)nc2c1 [Cpd 6, 3-(5-tert-butyl-benzooxazol-2-yl)-benzoic acid] | ** (2 stars (**) represent active compounds with a fold increase ratio between 1.3-2.0)
13 | CC(C)c1ccc(-c2ccc3oc(-c4cccc(C(=O)O)c4)nc3c2)cc1 [Cpd 36, 3-[5-(4-isopropyl-phenyl)-benzooxazol-2-yl]-benzoic acid] | ** (2 stars (**) represent active compounds with a fold increase ratio between 1.3-2.0)
14 | O=C(O)c1ccc2oc(-c3ccc(-c4ccccc4)cc3)nc2c1 [Cpd 19, 2-biphenyl-4-yl-benzooxazole-5-carboxylic acid] | ** (2 stars (**) represent active compounds with a fold increase ratio between 1.3-2.0)
15 | O=C(O)c1ccc2oc(-c3ccc(N4CCOCC4)cc3)nc2c1 [Cpd 51, 2-(4-morpholin-4-yl-phenyl)-benzooxazole-5-carboxylic acid] | ** (2 stars (**) represent active compounds with a fold increase ratio between 1.3-2.0)
16 | O=C(O)c1ccc2oc(-c3ccc(N4CCOCC4)nc3)nc2c1 [Cpd 90, 2-(6-morpholin-4-yl-pyridin-3-yl)-benzooxazole-5-carboxylic acid] | ** (2 stars (**) represent active compounds with a fold increase ratio between 1.3-2.0)

Row | Structure (SMILES) | Activity (Fold Activation)
17 | COc1ccc(-c2nc3cc(C(=O)O)ccc3o2)cc1 [Cpd 39, 2-(4-methoxy-phenyl)-benzooxazole-5-carboxylic acid] | ** (2 stars (**) represent active compounds with a fold increase ratio between 1.3-2.0)
18 | Cc1ccc(-c2nc3cc(C(=O)O)ccc3o2)cc1 [Cpd 38, 2-p-tolyl-benzooxazole-5-carboxylic acid] | *** (3 stars (***) represent active compounds with a fold increase ratio greater than 2.0)
19 | Cc1ccc2nc(-c3ccc(C(=O)O)cc3)oc2c1 [Cpd 11, 4-(6-methyl-benzooxazol-2-yl)-benzoic acid] | ** (2 stars (**) represent active compounds with a fold increase ratio between 1.3-2.0)
20 | O=C(O)c1cccc(-c2nc3cc(-c4ccc(OC(F)(F)F)cc4)ccc3o2)c1 [Cpd 29, 3-[5-(4-trifluoromethoxy-phenyl)-benzooxazol-2-yl]-benzoic acid] | ** (2 stars (**) represent active compounds with a fold increase ratio between 1.3-2.0)
21 | O=C(O)c1ccc2nc(-c3ccc(N4CCC4)nc3)oc2c1 [Cpd 93, 2-(6-azetidin-1-yl-pyridin-3-yl)-benzooxazole-6-carboxylic acid] | ** (2 stars (**) represent active compounds with a fold increase ratio between 1.3-2.0)
22 | O=C(O)c1cccc(-c2nc3ccc(-n4cccn4)cc3o2)c1 [Cpd 44, 3-(6-pyrazol-1-yl-benzooxazol-2-yl)-benzoic acid] | ** (2 stars (**) represent active compounds with a fold increase ratio between 1.3-2.0)
23 | CN1CCN(c2ccc3nc(-c4cccc(C(=O)O)c4)oc3c2)CC1 [Cpd 48, 3-[6-(4-methyl-piperazin-1-yl)-benzooxazol-2-yl]-benzoic acid] | * (1 star (*) represents active compounds with a fold increase ratio between 1.1-1.3)
24 | Cc1cc(-c2nc3cc(C(=O)O)ccc3o2)c(C)o1 [Cpd 77, 2-(2,5-dimethyl-furan-3-yl)-benzooxazole-5-carboxylic acid] | * (1 star (*) represents active compounds with a fold increase ratio between 1.1-1.3)
25 | O=C(O)c1ccc2nc(-c3ccc(-c4ccccc4)cc3)oc2c1 [Cpd 18, 2-biphenyl-4-yl-benzooxazole-6-carboxylic acid] | * (1 star (*) represents active compounds with a fold increase ratio between 1.1-1.3)
26 | NC(=O)c1cccc(-c2nc3ccc(N4CCCCC4)cc3o2)c1 [Cpd 110, 3-(6-piperidin-1-yl-benzooxazol-2-yl)-benzamide] | * (1 star (*) represents active compounds with a fold increase ratio between 1.1-1.3)
27 | CC(=O)Nc1ccc2oc(-c3ccc(Br)c(C)c3)nc2c1 [Cpd 128, N-[2-(4-bromo-3-methyl-phenyl)-benzooxazol-5-yl]-acetamide] | *** (3 stars (***) represent active compounds with a fold increase ratio greater than 2.0)
28 | O=C(O)c1ccc2oc(-c3ccc(N4CCC4)cc3)nc2c1 [Cpd 57, 2-(4-azetidin-1-yl-phenyl)-benzooxazole-5-carboxylic acid] | ** (2 stars (**) represent active compounds with a fold increase ratio between 1.3-2.0)
29 | O=C(O)c1cccc(-c2nc3cc(N4CCCC4)ccc3o2)c1 [Cpd 43, 3-(5-pyrrolidin-1-yl-benzooxazol-2-yl)-benzoic acid] | ** (2 stars (**) represent active compounds with a fold increase ratio between 1.3-2.0)
30 | Cc1cc(-c2nc3ccc(C(=O)O)cc3o2)c(C)o1 [Cpd 67, 2-(2,5-dimethyl-furan-3-yl)-benzooxazole-6-carboxylic acid] | ** (2 stars (**) represent active compounds with a fold increase ratio between 1.3-2.0)
31 | CC(C)c1ccc(-c2nc3cc(C(=O)O)ccc3o2)cc1 [Cpd 24, 2-(4-isopropyl-phenyl)-benzooxazole-5-carboxylic acid] | *** (3 stars (***) represent active compounds with a fold increase ratio greater than 2.0)
32 | COc1ccc2nc(-c3cccc(C(N)=O)c3)oc2c1 [Cpd 111, 3-(6-methoxy-benzooxazol-2-yl)-benzamide] | ** (2 stars (**) represent active compounds with a fold increase ratio between 1.3-2.0)
